According to patent publication US8637501B2, “Azinone-substituted azepino[b]indole and pyrido-pyrrolo-azepine MCH-1 antagonists, methods of making, and use thereof” (Albany Molecular Research, Inc., priority 2009, dated 2014):
Where a name gives a salt, the structure may show the parent alone.

target: human MCH-1 receptor (Homo sapiens (Human), UniProt Q99705); experiment: Binding Assay for Human Melanin-Concentrating Hormone (MCH-1) Receptor; settings: radioligand displacement, membranes from CHO-K1 cells expressing human MCH-1 receptor; Ki from IC50 by Cheng Prusoff equation; read-out: MCH1 Ki
Method: Binding Assay for Human Melanin-Concentrating Hormone (MCH-1) Receptor
Evaluation of the affinity of compounds for the human MCH-1 receptor was accomplished using 4-(3,4,5-tritritiumbenzyloxy)-1-(1-(2-(pyrrolidin-1-yl)ethyl)-1H-indazol-5-yl)pyridin-2(1H)-one and membranes prepared from stable CHO-K1 cells expressing the human MCH-1 receptor obtained from Euroscreen (Batch 1138). Cell membrane homogenates (8.92 μg protein) were incubated for 60 min at 25° C. with 1.4 nM of the [^3H]-labeled compound in the absence or presence of the test compound in 50 mM Tris-HCl buffer, pH 7.4. Nonspecific binding was determined in the presence of 50 μM 1-(5-(4-cyanophenyl)bicyclo[3.1.0]hexan-2-yl)-3-(4-fluoro-3-(trifluoromethyl)phenyl)-1-(3-(4-methylpiperazin-1-yl)propyl)urea. Following incubation, the samples were filtered rapidly under vacuum through Skatron 11731 filters, pre-soaked in 0.5% polyethylenimine, and washed with ice-cold 50 mM Tris-HCl buffer, pH 7.4, (wash setting 9,9,0) using a Skatron cell harvester. The filters were counted for radioactivity in a liquid scintillation counter (Tri-Carb 2100TR, Packard) using a scintillation cocktail (Ultima Gold MV, Perkin Elmer).
The results are expressed as a percent inhibition of the control radioligand specific binding. The IC50 value (concentration causing a half-maximal inhibition of control specific binding) and Hill coefficient (nH) were determined by non-linear regression analysis of the competition curve using Hill equation curve fitting. The inhibition constant (Ki) was calculated from the Cheng Prusoff equation: (Ki=IC50/(1+(L/KD)), where L=concentration of radioligand in the assay, and KD=affinity of the radioligand for the receptor.

Sequence of human MCH-1 receptor (Q99705 whole entry): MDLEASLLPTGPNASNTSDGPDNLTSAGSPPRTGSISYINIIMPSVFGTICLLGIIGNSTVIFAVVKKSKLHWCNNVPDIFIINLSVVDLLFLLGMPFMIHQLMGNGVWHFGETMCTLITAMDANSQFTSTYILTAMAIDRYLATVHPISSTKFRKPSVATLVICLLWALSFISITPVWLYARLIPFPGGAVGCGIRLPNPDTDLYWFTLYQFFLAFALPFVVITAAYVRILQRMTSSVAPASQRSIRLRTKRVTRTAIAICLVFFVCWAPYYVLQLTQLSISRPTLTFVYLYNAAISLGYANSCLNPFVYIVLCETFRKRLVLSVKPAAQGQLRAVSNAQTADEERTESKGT

Row | SMILES | Ki
1 | Cn1c2c(c3ccc(-n4ccc(OCc5ccc(F)cc5)cc4=O)nc31)CCNCC2 [Example 110, 4-(4-Fluorobenzyloxy)-1-(10-methyl-5,6,7,8,9,10-hexahydropyrido[3′,2′:4,5]pyrrolo[2,3-d]azepin-2-yl)pyridin-2(1H)-one hydrochloride] | 12 nM
2 | Cn1c2c(c3ccc(-n4ccc(OCc5ccc(Cl)cc5Cl)cc4=O)cc31)CCNCC2 [Example 51, 4-(2,4-Dichlorobenzyloxy)-1-(6-methyl-1,2,3,4,5,6-hexahydroazepino[4,5-b]indol-8-yl)pyridin-2(1H)-one] | 24 nM
3 | Cn1c2c(c3ccc(-n4ccc(CCc5ccccc5)nc4=O)cc31)CCNCC2 [Example 101, 1-(6-Methyl-1,2,3,4,5,6-hexahydroazepino[4,5-b]indol-8-yl)-4-phenethylpyrimidin-2(1H)-one hydrochloride] | 9.9 nM
4 | Cn1c2c(c3ccc(-n4ccc(OCc5ccc(F)cc5)cc4=O)cc31)CCNCC2 [Example 57, 4-(4-Fluorobenzyloxy)-1-(6-methyl-1,2,3,4,5,6-hexahydroazepino[4,5-b]indol-8-yl)pyridin-2(1H)-one hydrochloride] | 7.3 nM
5 | CC(C)N1CCc2[nH]c3cc(-n4ccc(OCc5ccc(F)cn5)cc4=O)ccc3c2CC1 [Example 42, 4-((5-Fluoropyridin-2-yl)methoxy)-1-(3-isopropyl-1,2,3,4,5,6-hexahydroazepino[4,5-b]indol-8-yl)-pyridin-2(1H)-one hydrochloride] | 17.8 nM
6 | Cn1c2c(c3ccc(-n4ccc(-c5cnc(C(F)(F)F)nc5)cc4=O)cc31)CCNCC2 [Example 6, 1-(6-Methyl-1,2,3,4,5,6-hexahydroazepino[4,5-b]indol-8-yl)-4-(2-(trifluoromethyl)pyrimidin-5-yl)pyridin-2(1H)-one dihydrochloride] | 131 nM
7 | Cn1c2c(c3ccc(-n4ccc(OCc5ccc(F)cc5)cc4=O)nc31)CNCCC2 [Example 112, 4-(4-Fluorobenzyloxy)-1-(10-methyl-5,6,7,8,9,10-hexahydropyrido[3′,2′:4,5]pyrrolo[3,2-c]azepin-2-yl)pyridin-2(1H)-one hydrochloride] | 8.9 nM
8 | Cn1c2c(c3ccc(-n4ccc(OCc5ccc(Cl)cc5)cc4=O)nc31)CCNCC2 [Example 109, 4-(4-Chlorobenzyloxy)-1-(10-methyl-5,6,7,8,9,10-hexahydropyrido[3′,2′:4,5]pyrrolo[2,3-d]azepin-2-yl)pyridin-2(1H)-one hydrochloride] | 9.6 nM
9 | Cn1c2c(c3ccc(-n4ccc(-c5ccc(C(F)(F)F)nc5)cc4=O)cc31)CCNCC2 [Example 4, 1-(6-Methyl-1,2,3,4,5,6-hexahydroazepino[4,5-b]indol-8-yl)-4-(6-(trifluoromethyl)pyridin-3-yl)pyridin-2(1H)-one dihydrochloride] | 7.1 nM
10 | Cc1ccc(-c2ccn(-c3ccc4c5c(n(C)c4c3)CCNCC5)c(=O)c2)cn1 [Example 11, 1-(6-Methyl-1,2,3,4,5,6-hexahydroazepino[4,5-b]indol-8-yl)-4-(6-methylpyridin-3-yl)pyridin-2(1H)-one dihydrochloride] | 49 nM
11 | Cn1c2c(c3ccc(-n4ccc(OCc5ccc(Cl)cc5)cc4=O)cc31)CCNCC2 [Example 100, 4-(4-Chlorobenzyloxy)-1-(6-methyl-1,2,3,4,5,6-hexahydroazepino[4,5-b]indol-8-yl)pyridin-2(1H)-one hydrochloride] | 10 nM
12 | Cn1c2c(c3ccc(-n4ccc(-c5ccc(C(F)(F)F)nn5)cc4=O)cc31)CCNCC2 [Example 2, 1-(6-Methyl-1,2,3,4,5,6-hexahydroazepino[4,5-b]indol-8-yl)-4-(6-(trifluoromethyl)pyridazin-3-yl)pyridin-2(1H)-one dihydrochloride] | 14.4 nM
13 | Cn1c2c(c3ccc(-n4ccc(OCc5ccc(F)cc5F)cc4=O)nc31)CCNCC2 [Example 83, 4-(2,4-Difluorobenzyloxy)-1-(10-methyl-5,6,7,8,9,10-hexahydropyrido[3′,2′:4,5]pyrrolo[2,3-d]azepin-2-yl)pyridin-2(1H)-one hydrochloride] | 13 nM
14 | Cn1c2c(c3ccc(-n4ccc(-c5ccc(C(F)(F)F)cc5)cc4=O)nc31)CNCCC2 [Example 95, 1-(10-methyl-5,6,7,8,9,10-hexahydropyrido[3′,2′:4,5]pyrrolo[3,2-c]azepin-2-yl)-4-(4-(trifluoromethyl)phenyl)pyridin-2(1H)-one hydrochloride] | 7.8 nM
15 | CCN1CCCc2c(c3ccc(-n4ccc(OCc5ccc(F)cn5)cc4=O)cc3n2C)C1 [Example 73, 1-(2-Ethyl-6-methyl-1,2,3,4,5,6-hexahydroazepino[4,3-b]indol-8-yl)-4-((5-fluoropyridin-2-yl)methoxy)pyridin-2(1H)-one hydrochloride] | 9.4 nM
16 | Cn1c2c(c3ccc(-n4ccc(OCc5ccc(F)cc5F)cc4=O)cc31)CCNCC2 [Example 52, 4-(2,4-Difluorobenzyloxy)-1-(6-methyl-1,2,3,4,5,6-hexahydroazepino[4,5-b]indol-8-yl)pyridin-2(1H)-one hydrochloride] | 7.8 nM
17 | Cn1c2c(c3ccc(-n4ccc(-c5ccc(C(F)(F)F)cn5)cc4=O)nc31)CNCCC2 [Example 92, 1-(10-methyl-5,6,7,8,9,10-hexahydropyrido[3′,2′:4,5]pyrrolo[3,2-c]azepin-2-yl)-4-(5-(trifluoromethyl)pyridine-2-yl)pyridin-2(1H)-one hydrochloride] | 20 nM
18 | Cl.Cn1c2c(c3ccc(-n4ccc(-c5ccc(C(F)(F)F)cc5)cc4=O)cc31)CCNCC2 [Example 41, 1-(6-Methyl-1,2,3,4,5,6-hexahydroazepino[4,5-b]indol-8-yl)-4(4-trifluoromethyl)phenyl)pyridin-2(1H)-one hydrochloride] | 10 nM
19 | CC(=O)N1CCc2c(n(C)c3cc(-n4ccc(-c5ccc(C(F)(F)F)nc5)cc4=O)ccc23)CC1 [Example 46, 1-(3-Acetyl-6-methyl-1,2,3,4,5,6-hexahydroazepino[4,5-b]indol-8-yl)-4-(6-(trifluoromethyl)pyridin-3-yl)pyridin-2(1H)-one] | 47 nM
20 | O=c1cc(OCc2ccc(F)cn2)ccn1-c1ccc2c3c([nH]c2c1)CCNCC3 [Example 13, 4-((5-Fluoropyridin-2-yl)methoxy)-1-(1,2,3,4,5,6-hexahydroazepino[4,5-b]indol-8-yl)pyridin-2(1H)-one dihydrochloride] | 10.3 nM
21 | Cn1c2c(c3ccc(-n4ccc(OCc5ccc(Cl)cc5)cc4=O)cc31)CNCCC2 [Example 105, 4-(4-Chlorobenzyloxy)-1-(6-methyl-1,2,3,4,5,6-hexahydroazepino[4,3-b]indol-8-yl)pyridin-2(1H)-one hydrochloride] | 7.6 nM
22 | Cn1c2c(c3ccc(N4CCN(CCc5ccc(Cl)cc5)CC4=O)cc31)CCNCC2 [Example 53, 4-(4-Chlorophenethyl)-1-(6-methyl-1,2,3,4,5,6-hexahydroazepino[4,5-b]indol-8-yl)piperazin-2-one dihydrochloride] | 13 nM
23 | CN1CCc2c(n(C)c3cc(N4CCN(CCc5ccc(F)cc5)CC4=O)ccc23)CC1 [Example 98, 1-(3,6-Dimethyl-1,2,3,4,5,6-hexahydroazepino[4,5-b]indol-8-yl)-4-(4-fluorophenethyl)piperazin-2-one dihydrochloride] | 13 nM
24 | Cn1c2c(c3ccc(N4CCN(CCc5ccccn5)CC4=O)cc31)CNCCC2 [Example 59, 1-(6-Methyl-1,2,3,4,5,6-hexahydroazepino[4,3-b]indol-8-yl)-4-(2-(pyridin-2-yl)ethyl)piperazin-2-one dihydrochloride] | 44 nM
25 | O=c1cc(-c2ccc(C(F)(F)F)cn2)ccn1-c1ccc2c3c([nH]c2c1)CCNCC3 [Example 9, 1-(1,2,3,4,5,6-Hexahydroazepino[4,5-b]indol-8-yl)-4-(5-(trifluoromethyl)pyridin-2-yl)pyridin-2(1H)-one dihydrochloride] | 1370 nM
26 | CCN1CCc2c(n(C)c3nc(-n4ccc(OCc5ccccc5)cc4=O)ccc23)CC1 [Example 87, 4-(Benzyloxy)-1-(7-ethyl-10-methyl-5,6,7,8,9,10-hexahydropyrido[3′,2′:4,5]pyrrolo[2,3-d]azepin-2-yl)pyridin-2(1H)-one hydrochloride] | 6.9 nM
27 | CN1CCCc2c(c3ccc(-n4ccc(-c5ccc(C(F)(F)F)nn5)cc4=O)cc3n2C)C1 [Example 69, 1-(2,6-Dimethyl-1,2,3,4,5,6-hexahydroazepino[4,3-b]indol-8-yl)-4-(6-(trifluoromethyl)pyridazin-3-yl)pyridin-2(1H)-one hydrochloride] | 12 nM
28 | CN1CCCc2c(c3ccc(-n4ccc(OCc5ccc(C(F)(F)F)nc5)cc4=O)cc3n2C)C1 [Example 71, 1-(2,6-Dimethyl-1,2,3,4,5,6-hexahydroazepino[4,3-b]indol-8-yl)-4-((6-(trifluoromethyl)pyridin-3-yl)methoxy)pyridin-2(1H)-one hydrochloride] | 8.5 nM
29 | Cn1c2c(c3ccc(-n4ccc(OCc5ccc(F)cc5F)cc4=O)nc31)CNCCC2 [Example 94, 4-(2,4-Difluorobenzyloxy)-1-(10-methyl-5,6,7,8,9,10-hexahydropyrido[3′,2′:4,5]pyrrolo[3,2-c]azepin-2-yl)pyridin-2(1H)-one hydrochloride] | 11 nM
